Data: patent publication US9988603B2, “Large scale generation of functional megakaryocytes and platelets from human embryonic stem cells under stromal-free conditions” (Stem Cell & Regenerative Medicine International, priority 2009, dated 2018)

Assays:
Assay type in all cases: cell-based, human
[1] = test system: platelet integrin receptor; experiment: Platelet spreading on immobilized fibrinogen and vWF; settings: control plasma platelets and ES-PLTs on fibrinogen, stimulated with agonist
Description: Chamber slides with microtiter wells (Nalgen Nunc, Rochester, N.Y.) were coated with […] fibrinogen (Sigma) in 0.1M NaHCO3 (pH 8.3) at 4° C. overnight. Washed human peripheral platelets or hESC-platelets (1×10^7/mL) were allowed to adhere and spread on fibrinogen-coated wells at 37° C. for 90 minutes. In some samples, platelets were preincubated with an integrin antagonist, RGDS peptide, for 5 minutes before loading. In other samples, platelets were mixed with ADP (10 μM) or thrombin (1 U/ml) (Sigma-Aldrich, St Louis, Mo.), and immediately loaded on to fibrinogen-coated wells. […] Adherent platelets were viewed with an Olympus BX51 fluorescence microscope (MVI, Avon, Mass.) using a PlanApo lens at 100×/1.40 oil objective. […]
Integrin outside-in signaling functional property in ES-PLTs was further assessed by spreading assay on immobilized fibrinogen on glass slides. […]
Chamber slides with microtiter wells (Nalgen Nunc, Rochester, N.Y.) were coated with 100 μg/mL fibrinogen or vWF ([…]) (Sigma-Aldrich, St Louis, Mo.) in 0.1M NaHCO3 (pH 8.3) at 4° C. overnight. […] Adherent platelets were viewed with an Olympus BX51 fluorescence microscope using a PlanApo lens at 100×/1.40 oil objective. […]

hESC-PLTs = experiment: CD41a/CD42b expression on hESC-PLTs generated under feeder-free conditions (FACS); settings: GM6001 100 μM during late stage of differentiation
Description: To examine whether functional platelets were generated under feeder-free conditions, the inventors examined CD41a/CD42b expression on hESC-derived platelets (hESC-PLTs) by FACS analyses. […] However, less than 5% of these hESC-PLTs were CD42b positive. […] Supplement of GM6001 (100 μM) during late stage of human ESC-PLTs differentiation increased CD41a and CD42b double positive hESC-PLTs to about 15%. The function of feeder-free generated hESC-PLTs was assessed by integrin dependent spreading assay on immobilized fibrinogen and vWF. Anti-human CD41a antibody and DAPI staining were used to identify platelets.
Hemangioblast/BC generation from hESC lines (HuES-3, H7 [WA07], MA01, and MA09) was performed as previously reported^17:20. BCs from day 6 to 8 cultures were purified and plated (1 to 5×10^5/ml) in Stemline II media supplemented with 50 ng/ml TPO, 20 ng/ml SCF and 20 ng/ml IL-11 (Peprotech) to induce BC differentiation toward MKs. Half of the MK culture media was replaced with fresh media every 2 or 3 days. […]
Cells from blast cultures or MK cultures are monitored routinely by flow cytometry analyses on FACSCalibur (Becton Dickinson) or Accuri C6 Cytometer (Accuri Cytometers). […] The samples were then analyzed with FACSCalibur, and data analyzed using Cellquest or Flowjo software. […] Cellular DNA content was analyzed on an Accuri C6 cytometer.

[2] = test system: CD41a+ megakaryocytes from hESC derived BCs; experiment: Megakaryocyte (MK) differentiation/expansion culture from hESC derived blast cells, CD41a+ cell count; settings: for yields / expansion of CD41a+ megakaryocytes: serum-free Stemline II MK culture of day 6 to 8 BCs, factors compared to TPO and SCF only, 4 day liquid culture
Description: BCs from day 6 to 8 blast cultures were purified and plated (1 to 5×10^5/ml) in Stemline II media supplemented with 50 ng/ml TPO, 20 ng/ml SCF and other cytokines to induce BC differentiation toward MKs. Half of the MK culture media was replaced with fresh media every 2 or 3 days.
In order to further direct the differentiation of megakaryocytes, day 6 to day 8 BCs from methylcellulose semi-solid cultures were harvested and then resuspended in serum-free media, i.e., Stemline II supplemented with cytokines for MK culture. The cell count of CD41a+ cells was used as readout to determine the expansion megakaryocytes during the suspension culture, which was calculated by multiplying the percentage of CD41a+(FACS) and total live cell count (Trypan blue exclusion). […] A panel of cytokines and factors were also tested in order to achieve high purity and the total yield of megakaryocytes from BCs. These factors including IL9 and BMP4 were previously reported as megakaryocyte promoting factors in other systems^21:22.
Certain factors, however, did slightly increase the percentage of CD41+ cells (not shown).

[3] = test system: hESC derived blast cells (BCs); experiment: Blast culture, percentage of CD41a+ cells by FACS; settings: for percentage of CD41a+ cells at the end of blast culture: TPO 100 ng/ml and SCF 50 ng/ml together, second phase of EB formation and blast colony growth
Description: The procedure for EB formation and BC generation were performed as previously reported^17:19. In brief, hESCs at 70% confluency were dissociated by 0.05% trypsin and plated in Ultra-Low dishes (Corning, N.Y.) with Stemline II (Sigma) medium supplemented with BMP-4, VEGF (50 ng/ml). Half of the medium was replaced after 48 hours with fresh medium containing the same cytokines plus bFGF 20 ng/ml, SCF, Flt3 ligand (FL) and Tpo (50 ng/ml each, R&D System). On day 4, EBs were collected and dissociated by 0.05% trypsin. Single-cell suspensions were obtained by passing the cells through 22-gauge needle and through a 40 μm cell strainer, collected by centrifugation, and resuspended in Stemline II media. Live cells were counted by trypan blue exclusion, and 1 to 2×10^5/ml were mixed with blast colony growth medium (BGM) as previously described, and plated in Ultra-Low dishes. Blast colonies were observed 3-4 days after plating, followed by rapid expansion.
Cells from blast cultures or megakaryocyte cultures are monitored routinely by flow cytometry analyses on FACS Caliber. Fluorochrome conjugated antibodies for lineage markers, CD41a, CD42a, CD42b and CD235a (BD Biosciences) were used to characterize the megakaryocyte and erythroid lineages. Antibodies were freshly prepared (1:100 dilution for CD42a and CD42b antibodies; 1:250 dilution for CD41a antibody; 1:2000 for CD235a antibody) in PBS with 5% new born calf serum. Typically 1 to 2×10^5 cells were used for antibody labeling. Cells were stained in 100 μl antibody cocktail for 1 hour on ice, then washed twice with buffer, and resuspended in 250 μl buffer supplemented with 1 μg/ml propidium iodide. To detect the expression level of HLA-ABC, platelets were incubated with a fluorescein isothiocyanate (FITC)-conjugated antihuman HLA-ABC antibody or FITC-conjugated mouse immunoglobulin G (IgG) as a control. The samples were then analyzed using a flow cytometer (FACSCalibur, Becton Dickinson), and data were analyzed using Cellquest or Flowjo software. Cell sorting was performed on BD FACS Aria system at UMASS Medical School Core Facility. […]

Nc1ncnc2c1ncn2[C@@H]1O[C@H](COP(=O)(O)OP(=O)(O)O)[C@@H](O)[C@H]1O [ADP] was tested, and the “lamellipodia and actin stress fiber formation” value [1] was “enhanced”.

For CNC(=O)[C@H](Cc1c[nH]c2ccccc12)NC(=O)[C@@H](CC(=O)NO)CC(C)C [GM6001], the “CD41a and CD42b double positive hESC-PLTs” value (hESC-PLTs) was “about 15%”.

With C[C@@H](N)[C@H]1CC[C@H](C(=O)Nc2ccncc2)CC1 [Y27632] the “CD41+ cell count at the end of 4 day culture” value ([2]; 10 μM during 4 day MK culture) was “reduced” and the “percentage of polyploid cells” value ([2]; 10 μM during 4 day MK culture) was “dramatically increased”.

For “IL9: previously reported megakaryocyte promoting factor”, the “yields / expansion of CD41a+ megakaryocytes” value (“yields / expansion” for short) [2] was “did not show obvious effects”.

For IL 6: cytokine tested in MK culture, the “yields / expansion” value [2] was “slightly increased”.

With SCF: cytokine in MK culture media the “yields / expansion” value [2] was “significantly increased” and the “percentage of CD41a+ cells at the end of blast culture” value [3] was “increased”.

In the case of TPO: cytokine in MK culture media, the “yields / expansion” value [2] is reported as “not sufficient” and the “percentage of CD41a+ cells at the end of blast culture” value [3] is reported as “increased”.

With VEGF the “yields / expansion” value [2] was “slightly increased”.

For “bFGF: growth factor tested in MK culture”, the “yields / expansion” value [2] was “slightly increased”.

thrombin was tested, and the “lamellipodia and actin stress fiber formation” value [1] was “enhanced”.

B1: IL11: cytokine reported to enhance expansion and maturation of megakaryocytes (protein, UniProt P20809 22-199, looked up)
Interleukin-11: PGPPPGPPRVSPDPRAELDSTVLLTRSLLADTRQLAAQLRDKFPADGDHNLDSLPTLAMSAGALGALQLPGVLTRLRADLLSYLRHVQWLRRAGGSSLKTLEPELGTLQARLDRLLRRLQLLMSRLALPQPPPDPPAPPLAPPSSAWGGIRAAHAILGGLHLTLDWAVRGLLLLKTRL
In the case of B1, the “yields / expansion” value [2] is reported as “slightly increased” and the “ratio of CD41a+ cells in day 6 to 8 blast cultures” value ([3]; IL-11 20 ng/ml in BGM medium) is reported as “further increased”.

B2: BMP4: previously reported megakaryocyte promoting factor (protein, UniProt P12644 293-408, looked up)
Bone morphogenetic protein 4: SPKHHSQRARKKNKNCRRHSLYVDFSDVGWNDWIVAPPGYQAFYCHGDCPFPLADHLNSTNHAIVQTLVNSVNSSIPKACCVPTELSAISMLYLDEYDKVVLKNYQEMVVEGCGCR
B2 was tested, and the “yields / expansion” value [2] was “did not show obvious effects”.
